Measured values: ChEMBL document CHEMBL1828584, “Hybrids of oxoisoaporphine-tacrine congeners: novel acetylcholinesterase and acetylcholinesterase-induced β-amyloid aggregation inhibitors” (Eur J Med Chem, 2011)
pIC50: −log10 of the molar value.

Columns and labels:
[1] = biological target: Acetylcholinesterase (Electrophorus electricus, UniProt O42275)
Description: Inhibition of Electrophorus electricus AChE using acetylthiocholine chloride as substrate after 15 mins by Ellman's method

[2] = biological target: Cholinesterase (Equus caballus, UniProt P81908)
Description: Inhibition of equine serum BChE using acetylthiocholine chloride as substrate after 15 mins by Ellman's method

[3] = in vitro; conditions: PAMPA
Description: Permeability of the compound by PAMPA

Nc1ccc2c(c1)C(=O)c1cccc3ccnc-2c13
pIC50 [1]: < 4.00
pIC50 [2]: < 4.00

O=C(CCNCCNc1c2c(nc3ccccc13)CCCCC2)Nc1ccc2c(c1)C(=O)c1cccc3ccnc-2c13
Papp [3]: 7.9 ×10⁻⁶ cm/s
pIC50 [1]: 7.29
pIC50 [2]: 7.19

O=C(CNCCNc1c2c(nc3ccccc13)CCC2)Nc1ccc2c(c1)C(=O)c1cccc3ccnc-2c13
Papp [3]: 4.6 ×10⁻⁶ cm/s
pIC50 [1]: 6.29
pIC50 [2]: 6.61

O=C(CCNCCCNc1c2c(nc3ccccc13)CCCC2)Nc1ccc2c(c1)C(=O)c1cccc3ccnc-2c13
Papp [3]: 3.3 ×10⁻⁶ cm/s
pIC50 [1]: 7.24
pIC50 [2]: 6.70

O=C(CNCCNc1c2c(nc3ccccc13)CCCCC2)Nc1ccc2c(c1)C(=O)c1cccc3ccnc-2c13
Papp [3]: 4 ×10⁻⁶ cm/s
pIC50 [1]: 7.21
pIC50 [2]: 6.68

O=C(CCNCCCNc1c2c(nc3ccccc13)CCCCC2)Nc1ccc2c(c1)C(=O)c1cccc3ccnc-2c13
Papp [3]: 8.9 ×10⁻⁶ cm/s
pIC50 [1]: 6.59
pIC50 [2]: 7.68

O=C(CCNCCCCNc1c2c(nc3ccccc13)CCCCC2)Nc1ccc2c(c1)C(=O)c1cccc3ccnc-2c13
Papp [3]: 1.1 ×10⁻⁶ cm/s
pIC50 [1]: 6.13
pIC50 [2]: 6.82

O=C(CCNCCNc1c2c(nc3ccccc13)CCC2)Nc1ccc2c(c1)C(=O)c1cccc3ccnc-2c13
Papp [3]: 1.9 ×10⁻⁶ cm/s
pIC50 [1]: 6.37
pIC50 [2]: 5.75

O=C(CCNCCNc1c2c(nc3ccccc13)CCCC2)Nc1ccc2c(c1)C(=O)c1cccc3ccnc-2c13
Papp [3]: 2.6 ×10⁻⁶ cm/s
pIC50 [1]: 8.47
pIC50 [2]: 6.96

O=C(CCNCCCCNc1c2c(nc3ccccc13)CCCC2)Nc1ccc2c(c1)C(=O)c1cccc3ccnc-2c13
Papp [3]: 2.1 ×10⁻⁶ cm/s
pIC50 [1]: 6.74
pIC50 [2]: 6.54

O=C(CNCCNc1c2c(nc3ccccc13)CCCC2)Nc1ccc2c(c1)C(=O)c1cccc3ccnc-2c13
Papp [3]: 4.8 ×10⁻⁶ cm/s
pIC50 [1]: 7.39
pIC50 [2]: 6.36

O=C(CCNCCCCNc1c2c(nc3ccccc13)CCC2)Nc1ccc2c(c1)C(=O)c1cccc3ccnc-2c13
Papp [3]: 2.4 ×10⁻⁶ cm/s
pIC50 [1]: 6.04
pIC50 [2]: 6.70

O=C(CCNCCCNc1c2c(nc3ccccc13)CCC2)Nc1ccc2c(c1)C(=O)c1cccc3ccnc-2c13
Papp [3]: 4.9 ×10⁻⁶ cm/s
pIC50 [1]: 6.39
pIC50 [2]: 6.40
